Test results reported in article PMC12368656 (2025).

Experiments:
[1] = test system: 3′-methylene blue- and 5′-thiol-modified oligonucleotide with affinity toward vancomycin (aptamer probe) (DNA, aptamer) CGAGGGTACCGCAATAGTACTTATTGTTCGCCTATTGTGGGTCGG; assay: electrochemical aptamer-based sensor, SWV titration, planar gold electrode; settings: Na+ (0.5 wt % NaCl); artificial sweat (0.1 wt % urea, 0.1 wt % lactic acid), pH 6.5, room temperature; apparent
[2] = test system: 3′-methylene blue- and 5′-thiol-modified oligonucleotide with affinity toward vancomycin (aptamer probe) (DNA, aptamer) CGAGGGTACCGCAATAGTACTTATTGTTCGCCTATTGTGGGTCGG; assay: electrochemical aptamer-based sensor, SWV titration, gold-coated microstructured electrode (MSE); settings: Na+ (0.5 wt % NaCl); artificial sweat (0.1 wt % urea, 0.1 wt % lactic acid), pH 6.5, room temperature; apparent

CN[C@H](CC(C)C)C(=O)N[C@H]1C(=O)N[C@@H](CC(N)=O)C(=O)N[C@H]2C(=O)N[C@H]3C(=O)N[C@H](C(=O)N[C@H](C(=O)O)c4cc(O)cc(O)c4-c4cc3ccc4O)[C@H](O)c3ccc(c(Cl)c3)Oc3cc2cc(c3O[C@@H]2O[C@H](CO)[C@@H](O)[C@H](O)[C@H]2O[C@H]2C[C@](C)(N)[C@H](O)[C@H](C)O2)Oc2ccc(cc2Cl)[C@H]1O
KD [1]: 26.3 ± 3.3 µM | KD [2]: 46.6 ± 4.1 µM
